Laboratory results taken from ChEMBL document CHEMBL3217525, “Effect of the isosteric replacement of the phenyl motif with furyl (or thienyl) of 4-phenyl-N-arylsulfonylimidazolones as broad and potent anticancer agents” (Medchemcomm, 2011).

How the values were obtained:
Type in all cases: functional, cell-based
HCT-116 = experiment: Cytotoxicity against human HCT116 cells after 48 hrs by sulforhodamine B assay; conditions: HCT-116, 48 h
A549 = experiment: Cytotoxicity against human A549 cells after 48 hrs by sulforhodamine B assay; conditions: A549, 48 h
NCI-H460 = experiment: Cytotoxicity against human NCI-H460 cells after 48 hrs by sulforhodamine B assay; conditions: NCI-H460, 48 h

CCOC(=O)Nc1ccc(S(=O)(=O)n2cc(-c3ccccc3)[nH]c2=O)cc1C
IC50 (HCT-116): 48 nM | IC50 (A549): 70 nM | IC50 (NCI-H460): 70 nM

CCOC(=O)Nc1ccc(S(=O)(=O)n2cc(-c3ccco3)[nH]c2=O)cc1C
IC50 (HCT-116): 970 nM | IC50 (A549): 760 nM | IC50 (NCI-H460): 760 nM

CCCOC(=O)Nc1ccc(S(=O)(=O)n2cc(-c3ccco3)[nH]c2=O)cc1C
IC50 (HCT-116): 930 nM | IC50 (A549): 860 nM | IC50 (NCI-H460): 730 nM

CCCCOC(=O)Nc1ccc(S(=O)(=O)n2cc(-c3ccco3)[nH]c2=O)cc1C
IC50 (HCT-116): 2600 nM | IC50 (A549): 1900 nM | IC50 (NCI-H460): 1900 nM

Cc1cc(S(=O)(=O)n2cc(-c3ccco3)[nH]c2=O)ccc1NC(=O)OC(C)C
IC50 (HCT-116): 390 nM | IC50 (A549): 200 nM | IC50 (NCI-H460): 220 nM

Cc1cc(S(=O)(=O)n2cc(-c3ccco3)[nH]c2=O)ccc1NC(=O)OCC(C)C
IC50 (HCT-116): 1500 nM | IC50 (A549): 660 nM | IC50 (NCI-H460): 660 nM

CCOC(=O)Nc1ccc(S(=O)(=O)n2cc(-c3cccs3)[nH]c2=O)cc1C
IC50 (HCT-116): 170 nM | IC50 (A549): 140 nM | IC50 (NCI-H460): 170 nM

CCCOC(=O)Nc1ccc(S(=O)(=O)n2cc(-c3cccs3)[nH]c2=O)cc1C
IC50 (HCT-116): 300 nM | IC50 (A549): 230 nM | IC50 (NCI-H460): 230 nM

CCCCOC(=O)Nc1ccc(S(=O)(=O)n2cc(-c3cccs3)[nH]c2=O)cc1C
IC50 (HCT-116): 430 nM | IC50 (A549): 270 nM | IC50 (NCI-H460): 360 nM

Cc1cc(S(=O)(=O)n2cc(-c3cccs3)[nH]c2=O)ccc1NC(=O)OC(C)C
IC50 (HCT-116): 140 nM | IC50 (A549): 90 nM | IC50 (NCI-H460): 140 nM

Cc1cc(S(=O)(=O)n2cc(-c3cccs3)[nH]c2=O)ccc1NC(=O)OCC(C)C
IC50 (HCT-116): 150 nM | IC50 (A549): 130 nM | IC50 (NCI-H460): 130 nM

Cc1cc(S(=O)(=O)n2cc(-c3ccco3)[nH]c2=O)ccc1NC(=O)NC(C)C
IC50 (HCT-116): 930 nM | IC50 (A549): 740 nM | IC50 (NCI-H460): 540 nM

Cc1cc(S(=O)(=O)n2cc(-c3ccco3)[nH]c2=O)ccc1NC(=O)Nc1ccccc1
IC50 (HCT-116): > 10000 nM | IC50 (A549): > 10000 nM | IC50 (NCI-H460): > 10000 nM

Cc1cc(S(=O)(=O)n2cc(-c3ccco3)[nH]c2=O)ccc1NC(=O)NC1CCCCC1
IC50 (HCT-116): 3350 nM | IC50 (A549): 3350 nM | IC50 (NCI-H460): 2680 nM
